What was measured:
Type in all cases: cell-based
[1] = molecular target: T1, EP4 (Homo sapiens, UniProt P35408); assay: calcium flux antagonism of PGE2 in HEK293 cells stably expressing EP4 coupled through a promiscuous G protein
T1 construct: gene PTGER4

[2] = molecular target: T2, EP2 (Homo sapiens, UniProt P43116); assay: calcium flux antagonism of PGE2 in HEK293 cells stably expressing EP2 coupled through a promiscuous G protein
T2 construct: gene PTGER2

[3] = molecular target: T1, EP4; assay: calcium flux assay in HEK293-based cells stably expressing human EP4

T1 sequence (P35408 whole entry): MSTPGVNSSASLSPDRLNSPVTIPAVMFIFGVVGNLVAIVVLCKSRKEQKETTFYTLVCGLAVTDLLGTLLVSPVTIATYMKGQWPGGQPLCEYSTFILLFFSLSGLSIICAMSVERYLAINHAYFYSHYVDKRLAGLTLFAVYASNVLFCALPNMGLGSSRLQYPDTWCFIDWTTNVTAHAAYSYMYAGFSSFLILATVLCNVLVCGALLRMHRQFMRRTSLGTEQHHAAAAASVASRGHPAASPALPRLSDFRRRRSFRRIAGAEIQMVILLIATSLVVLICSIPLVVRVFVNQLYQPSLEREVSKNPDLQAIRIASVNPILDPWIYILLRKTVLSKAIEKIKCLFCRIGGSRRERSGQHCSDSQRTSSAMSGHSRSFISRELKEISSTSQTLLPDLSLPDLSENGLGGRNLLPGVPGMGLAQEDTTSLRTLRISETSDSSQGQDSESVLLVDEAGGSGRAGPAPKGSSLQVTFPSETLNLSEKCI
T2 sequence (P43116 whole entry): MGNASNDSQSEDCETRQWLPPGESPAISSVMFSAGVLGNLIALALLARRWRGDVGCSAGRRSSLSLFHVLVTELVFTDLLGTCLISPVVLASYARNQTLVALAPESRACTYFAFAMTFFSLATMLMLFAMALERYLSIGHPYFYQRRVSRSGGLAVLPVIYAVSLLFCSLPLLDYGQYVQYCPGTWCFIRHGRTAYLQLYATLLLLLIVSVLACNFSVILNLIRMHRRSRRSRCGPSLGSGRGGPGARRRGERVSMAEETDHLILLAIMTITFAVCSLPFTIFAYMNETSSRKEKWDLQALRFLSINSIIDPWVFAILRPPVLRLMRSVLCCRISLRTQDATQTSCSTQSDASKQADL

IC50 [1] [nM]	IC50 [2] [nM]	IC50 [3] [nM]	Substance
3.24	17.2		TPST-1495
		0.4	TPST-7131
